Data taken from ChEMBL document CHEMBL5346955, “Discovery of HPG1860, a Structurally Novel Nonbile Acid FXR Agonist Currently in Clinical Development for the Treatment of Nonalcoholic Steatohepatitis” (J Med Chem, 2023).
pEC50: −log10 of the molar value. In brackets after ≈: the same amount, converted by molar mass.

How the values were obtained:
Bile acid receptor [1] = target: T1, Bile acid receptor (Homo sapiens, UniProt Q96RI1); test: Agonist activity at GST-tagged human FXR-LBD in presence of luorescein-SRC2-2 coactivator peptide by TR-FRET assay
T1 sequence (Q96RI1 whole entry): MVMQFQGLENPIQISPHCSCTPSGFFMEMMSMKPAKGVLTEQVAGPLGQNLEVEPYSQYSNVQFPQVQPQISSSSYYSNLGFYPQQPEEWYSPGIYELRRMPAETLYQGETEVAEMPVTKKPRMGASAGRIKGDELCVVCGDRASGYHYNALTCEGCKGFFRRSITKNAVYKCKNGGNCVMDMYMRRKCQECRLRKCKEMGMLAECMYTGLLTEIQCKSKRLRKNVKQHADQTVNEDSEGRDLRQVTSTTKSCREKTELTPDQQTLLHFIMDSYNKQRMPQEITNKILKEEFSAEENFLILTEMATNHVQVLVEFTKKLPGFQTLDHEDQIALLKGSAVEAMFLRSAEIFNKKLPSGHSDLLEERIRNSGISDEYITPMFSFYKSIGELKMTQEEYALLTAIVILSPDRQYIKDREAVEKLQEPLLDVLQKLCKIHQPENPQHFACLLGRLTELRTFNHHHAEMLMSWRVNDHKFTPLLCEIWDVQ

Bile acid receptor [2] = target: T1, Bile acid receptor; test: Agonist activity at human GAL4-FXR-LBD expressed in HEK293T cells assessed as transcriptional activity measured after 16 to 20 hrs by luciferase reporter gene assay; assay type: cell-based
[3] = Solubility of the compound in PBS buffer at pH 7.4; assay type: physicochemical
[4] = Metabolic stability in human liver microsomes assessed as half life at 1 uM measured upto 120 mins by UPLC/MS/MS analysis; assay type: ADME, Microsome
[5] = Metabolic stability in rat liver microsomes assessed as half life at 1 uM measured upto 120 mins by UPLC/MS/MS analysis; assay type: ADME, Microsome
[6] = Metabolic stability in dog liver microsomes assessed as half life at 1 uM measured upto 120 mins by UPLC/MS/MS analysis; assay type: ADME, Canis lupus familiaris, Microsome
[7] = Metabolic stability in cynomolgus monkey liver microsomes assessed as half life at 1 uM measured upto 120 mins by UPLC/MS/MS analysis; assay type: ADME, Macaca fascicularis, Microsome

Row | SMILES | pEC50 (Bile acid receptor [1]) | pEC50 (Bile acid receptor [2]) | other results
1 | COc1cc(C(=O)O)cc2sc(N3CCC(Cc4c(-c5c(Cl)cccc5Cl)noc4C(C)C)CC3)nc12 | 7.55 | 6.71 | –
2 | CC(C)c1onc(-c2c(Cl)cccc2Cl)c1CN1CCN(c2cc3cc(C(=O)O)ccc3s2)CC1 | – | 5.93 | –
3 | CC(C)c1onc(-c2c(Cl)cccc2Cl)c1CN1CCN(c2nc3cccc(C(=O)O)c3s2)CC1 | – | < 5.30 | –
4 | C[C@@H]1CN(Cc2c(-c3c(Cl)cccc3Cl)noc2C2CC2)CCN1c1nc2c(F)cc(C(=O)O)cc2s1 | 8.22 | 7.41 | solubility [3]: 129 µM (≈ 72.5 µg/mL); half-life at 1 µM [4]: 1.47 h; half-life at 1 µM [5]: 1.54 h; half-life at 1 µM [6]: 6.67 h; half-life at 1 µM [7]: 1.94 h
5 | COc1cc(C(=O)O)cc2sc(N3CCC(Cc4c(-c5c(Cl)cccc5Cl)noc4C(C)C)C3)nc12 (centres undefined) | < 5.30 | < 5.30 | –
6 | COc1cc(C(=O)O)cc2sc(N3CCN(Cc4c(-c5c(Cl)cccc5Cl)noc4C(C)C)CC3)nc12 | 7.51 | 6.83 | –
7 | CC(C)c1onc(-c2c(Cl)cccc2Cl)c1CN1CCN(c2cc3cc(C(=O)O)ccc3n2C)CC1 | 7.17 | < 5.30 | –
8 | COc1cc(C(=O)O)cc2sc(C3CCN(Cc4c(-c5c(Cl)cccc5Cl)noc4C(C)C)CC3)nc12 | 6.70 | < 5.30 | –
